# Data: PubChem BioAssay AID330 (DTP/NCI, 2004)
# “And” between values parts separate entries of the source, which are not always exact repeats. Identical values can stand only once. Toxic doses and inconclusive results are not listed.
# Tested on: P388 leukemia ip, CD2F1 mice, survival T/C
# Test: NCI In Vivo Anticancer Drug Screen. Data for tumor model P388 Leukemia (intraperitoneal) in CD2F1 (CDF1) mice
# Conditions: endpoint: median survival time, higher = longer survival
# Summary of the method: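 Mice carrying the transplanted tumor received test compound or vehicle. Survival was recorded in each group, and the value is the treated-group measurement divided by that of the vehicle-treated control group.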
# [1] = dose: 50.0 mg/kg/injection, schedule: Q01DX005 (ip), vehicle: saline with Tween-80
# [2] = dose: 50.0 mg/kg/injection, schedule: Q01DX005 (ip), vehicle: saline
# [3] = dose: 100.0 mg/kg/injection, schedule: Q01DX005 (ip), vehicle: saline
# [4] = dose: 200.0 mg/kg/injection, schedule: Q01DX005 (ip), vehicle: saline
structure (smiles),measurement,setting,value
C[Si]1(C)O[Si](C)(C)N(N)P(=S)(Oc2ccccc2)N1N,T/C,"dose: 12.5 mg/kg/injection, schedule: Q01DX005 (ip), vehicle: saline with Tween-80",101 % of control
same,T/C,"dose: 25.0 mg/kg/injection, schedule: Q01DX005 (ip), vehicle: saline with Tween-80",108 % of control
same,T/C,[1],104 % of control and 111 % of control
CC(C)(C)N(OC(=O)c1ccc([N+](=O)[O-])cc1)c1ccccc1,T/C,"dose: 25.0 mg/kg/injection, schedule: Q01DX009 (ip), vehicle: saline with Tween-80",98 % of control
same,T/C,"dose: 50.0 mg/kg/injection, schedule: Q01DX009 (ip), vehicle: saline with Tween-80",97 % of control
same,T/C,"dose: 100.0 mg/kg/injection, schedule: Q01DX009 (ip), vehicle: saline with Tween-80",95 % of control
CCOC(=O)NN(CC(=O)OCc1ccccc1)N=O,T/C,"dose: 12.5 mg/kg/injection, schedule: Q01DX009 (ip), vehicle: other",109 % of control
same,T/C,"dose: 25.0 mg/kg/injection, schedule: Q01DX009 (ip), vehicle: other",94 % of control
same,T/C,"dose: 50.0 mg/kg/injection, schedule: Q01DX009 (ip), vehicle: other",100 % of control
same,T/C,"dose: 100.0 mg/kg/injection, schedule: Q01DX009 (ip), vehicle: other",102 % of control
same,T/C,"dose: 200.0 mg/kg/injection, schedule: Q01DX009 (ip), vehicle: other",98 % of control
CC1CC=C(C(=O)N2CCOCC2)C1 (configuration not stated),T/C,"dose: 50.0 mg/kg/injection, schedule: Q04DX003 (ip), vehicle: Klucel (hydroxypropylcellulose) (HPC)",103 % of control
same,T/C,"dose: 100.0 mg/kg/injection, schedule: Q04DX003 (ip), vehicle: Klucel (hydroxypropylcellulose) (HPC)",105 % of control
same,T/C,"dose: 200.0 mg/kg/injection, schedule: Q04DX003 (ip), vehicle: Klucel (hydroxypropylcellulose) (HPC)",101 % of control
CC(C)CCCC(C)C1CCC2C3CCC4CC5(C)C(CC4(C)C3CCC12C)C(=O)C5(Cl)Cl (configuration not stated),T/C,[1],96 % of control
same,T/C,"dose: 100.0 mg/kg/injection, schedule: Q01DX005 (ip), vehicle: saline with Tween-80",100 % of control
same,T/C,"dose: 200.0 mg/kg/injection, schedule: Q01DX005 (ip), vehicle: saline with Tween-80",99 % of control
CCCCCCCCCCCC(CCCCCCCCCC)CCCCCCCCCC,T/C,"dose: 50.0 mg/kg/injection, schedule: Q01DX001 (ip), vehicle: saline with Tween-80",109 % of control
same,T/C,"dose: 100.0 mg/kg/injection, schedule: Q01DX001 (ip), vehicle: saline with Tween-80",104 % of control
same,T/C,"dose: 200.0 mg/kg/injection, schedule: Q01DX001 (ip), vehicle: saline with Tween-80",100 % of control
CC(=O)OCCCCCCCCCCCCCCCCCC1=C(C)C(=O)OC1=O,T/C,"dose: 25.0 mg/kg/injection, schedule: Q01DX005 (ip), vehicle: Klucel (hydroxypropylcellulose) (HPC)",96 % of control
same,T/C,"dose: 50.0 mg/kg/injection, schedule: Q01DX005 (ip), vehicle: Klucel (hydroxypropylcellulose) (HPC)",97 % of control
same,T/C,"dose: 100.0 mg/kg/injection, schedule: Q01DX005 (ip), vehicle: Klucel (hydroxypropylcellulose) (HPC)",103 % of control
same,T/C,"dose: 200.0 mg/kg/injection, schedule: Q01DX005 (ip), vehicle: Klucel (hydroxypropylcellulose) (HPC)",99 % of control
same,T/C,"dose: 400.0 mg/kg/injection, schedule: Q01DX005 (ip), vehicle: Klucel (hydroxypropylcellulose) (HPC)",92 % of control
OC1(O)CCCCN1Cc1ccccc1,T/C,"dose: 25.0 mg/kg/injection, schedule: Q01DX005 (ip), vehicle: saline",103 % of control
same,T/C,[2],101 % of control
same,T/C,[3],100 % of control
same,T/C,[4],107 % of control
COc1cc2cc[n+]3c(C)c4cc5c(cc4cc3c2cc1OC)OCO5 (tested in a mixture with another compound),T/C,"dose: 0.88 mg/kg/injection, schedule: Q01DX009 (ip), vehicle: saline",124 % of control
same,T/C,"dose: 8.33 mg/kg/injection, schedule: Q01DX009 (ip), vehicle: saline",166 % of control
same,T/C,"dose: 12.5 mg/kg/injection, schedule: Q01DX009 (ip), vehicle: saline",175 % of control
same,T/C,"dose: 18.7 mg/kg/injection, schedule: Q01DX009 (ip), vehicle: saline",198 % of control
COC(=O)C1[C@@H](C(=O)c2ccccc2)N2C=Cc3ccccc3[C@@H]2[C@H]1C(=O)OC (some centres not stated),T/C,"dose: 60.0 mg/kg/injection, schedule: Q01DX005 (ip), vehicle: saline + Tween-80 + alcohol",93 % of control
same,T/C,"dose: 120.0 mg/kg/injection, schedule: Q01DX005 (ip), vehicle: saline + Tween-80 + alcohol",93 % of control
same,T/C,"dose: 240.0 mg/kg/injection, schedule: Q01DX005 (ip), vehicle: saline + Tween-80 + alcohol",92 % of control
N/C=N/OCc1ccccc1,T/C,[2],101 % of control
same,T/C,[3],104 % of control
same,T/C,[4],105 % of control
CS(=O)(=O)C(Cl)(Cl)Cl,T/C,"dose: 60.0 mg/kg/injection, schedule: Q01DX005 (ip), vehicle: saline with Tween-80",105 % of control
same,T/C,"dose: 120.0 mg/kg/injection, schedule: Q01DX005 (ip), vehicle: saline with Tween-80",107 % of control
same,T/C,"dose: 240.0 mg/kg/injection, schedule: Q01DX005 (ip), vehicle: saline with Tween-80",112 % of control
